Values of other authors as cited in patent publication US12653831B2, “Methods for the non-toxic treatment for opioid drug withdrawal combining noribogaine and cannabinoids” (priority 2019, dated 2026).
Where two headings read alike, the source gives them in different places.

Legend:
[1] = test system: N13 microglial cells; details: ATP 400 μM, cultured N13 microglial cells
[2] = test system: rat primary microglia; details: ATP 400 μM
[3] = test system: primary microglia; details: for sensitivity of the induced migration to cannabinoid receptor antagonists: with CB(1)/CB(2) antagonists
[4] = high doses, various animal models
[5] = test system: β-amyloid-injected mice; details: subchronic administration for 3 weeks
[6] = molecular target: CB2 receptors (Homo sapiens, UniProt P34972)
[7] = not given; remark: listed apart in the source

CB2 receptors, sequence (P34972 whole entry): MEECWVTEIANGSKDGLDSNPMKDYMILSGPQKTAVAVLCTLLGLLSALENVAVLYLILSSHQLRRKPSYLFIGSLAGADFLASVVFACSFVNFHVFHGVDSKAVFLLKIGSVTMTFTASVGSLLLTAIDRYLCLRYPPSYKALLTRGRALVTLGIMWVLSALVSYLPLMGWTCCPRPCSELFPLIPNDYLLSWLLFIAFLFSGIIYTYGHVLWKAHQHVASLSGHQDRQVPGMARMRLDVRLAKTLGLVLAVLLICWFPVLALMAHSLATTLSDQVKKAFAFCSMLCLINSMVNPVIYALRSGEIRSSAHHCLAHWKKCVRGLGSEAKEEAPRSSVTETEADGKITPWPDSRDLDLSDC

Row | SMILES | effect on ATP-induced increase in intracellular calcium ([Ca(2+)](i)) [1] | effect on ATP-induced increase in intracellular calcium ([Ca(2+)](i)) [2] | effect on primary microglia migration [3] | sensitivity of the induced migration to cannabinoid receptor antagonists [3] | effect on EKG QTc interval (dose of 30 mg daily) | effect on EKG QTc interval (higher doses (above 60 mg/day)) | adverse effects in preclinical toxicity studies [4] | cytokine gene expression [5] | learning of a spatial navigation task [5] | binding to CB2 receptors [6] | tolerability ([7]; in humans) | psychoactive or cognitive effects ([7]; in vivo)
1 | CCCCCCC(C)(C)c1cc(OC)c([C@@H]2C=C(CO)[C@@H]3C[C@H]2C3(C)C)c(OC)c1 [HU-308] | without effect | without effect | induced | blocked by a CB(2) antagonist only | – | – | – | – | – | – | – | –
2 | CC[C@H]1CC2C[C@H]3c4[nH]c5ccc(O)cc5c4CCN(C2)C13 [noribogaine, Noribogaine] | – | – | – | – | shortens the QTc interval | increase QTc | serious cardiac and CNS adverse effects | – | – | – | – | –
3 | Cc1c(C(=O)c2cccc3ccccc23)c2cccc3c2n1[C@H](CN1CCOCC1)CO3 [WIN 55,212-2, (R)-(+)-[2,3-dihydro-5-methyl-3-(4-morpholinylmethyl)pyrrolo-[1,2,3-d,e]-1,4-benzoxazin-6-yl]-1-naphthalenyl-methanone] | concentration-dependently decreased | concentration-dependently decreased | promoted | blocked by CB(1) and/or CB(2) antagonists | – | – | – | able to prevent | able to prevent | – | – | –
4 | C=C(C)[C@@H]1CCC(C)=C[C@H]1c1c(O)cc(CCCCC)cc1O [CBD, cannabidiol] | concentration-dependently decreased | concentration-dependently decreased | promoted | blocked by CB(1) and/or CB(2) antagonists | – | – | – | able to prevent | able to prevent | binds very weakly | well tolerated without side effects | does not induce psychoactive or cognitive effects
